Measurements reported in patent US4921850A, “3-propenylcephem derivative” (Eisai Co., Ltd., priority 1986, dated 1990).
Values after ≈ are worked out from the molar mass of the structure shown. Where two headings read alike, the source gives them in different places.

Assays:
Test in all cases: Anti-bacterial activity (MIC), agar dilution
Type in all cases: cell-based
[1] = test system: Morganella morganii EP-14; conditions: about 10^6 CFU/ml, 37° C.
Procedure, shortened: (§1)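 Read-out is MIC (μg/ml) after 18 hours at 37° C on Mueller-Hinton agar with twofold antibiotic series. Inoculum: overnight broth cultures diluted to ~10^6 CFU/ml, spotted.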

[2] = test system: Escher. coli NIHJ; conditions: Escher. coli NIHJ, agar dilution, about 10^6 CFU/ml, 18 hours, 37° C.
Procedure, shortened: as §1

[3] = test system: Kleb. pneumoniae EK-6; conditions: Kleb. pneumoniae EK-6, agar dilution, about 10^6 CFU/ml, 18 hours, 37° C.
Procedure, shortened: as §1

[4] = test system: Pseud. aeruginosa EP-01; conditions: Pseud. aeruginosa EP-01, agar dilution, about 10^6 CFU/ml, 18 hours, 37° C.
Procedure, shortened: as §1

[5] = test system: Ser. marcescens ES-75; conditions: Ser. marcescens ES-75, agar dilution, about 10^6 CFU/ml, 18 hours, 37° C.
Procedure, shortened: as §1

[6] = test system: Staph. aureus 209-P; conditions: Staph. aureus 209-P, agar dilution, about 10^6 CFU/ml, 18 hours, 37° C.
Procedure, shortened: as §1

[7] = Morganella morganii, EP14, 18 h, read-out: MIC
[8] = Escherichia coli, 18 h, read-out: MIC
[9] = Klebsiella pneumoniae, EK6, 18 h, read-out: MIC
[10] = Pseudomonas aeruginosa, EP01, 18 h, read-out: MIC
[11] = Serratia marcescens, ES75, 18 h, read-out: MIC
[12] = Staphylococcus aureus, 209P, 18 h, read-out: MIC

Q: What does the source list for `C[N+]1(C/C=C/C2=C(C(=O)[O-])N3C(=O)[C@@H](NC(=O)/C(=N\OCF)c4nsc(N)n4)[C@H]3SC2)CCNCC1` [Example 124, 7β[2-(5-Amino-1,2,4-thiadiazol-3-yl)-(Z)-2-fluoromethoxyiminoacetamido]-3-[(E)-3-(1-methyl-1-piperazinio)-1-propen-1-yl]-3-cephem-4-carboxylate]?
A: MIC [1, 7]: 0.05 µg/mL (≈ 0.0925 µM); MIC [2, 8]: 0.05 µg/mL (≈ 0.0925 µM); MIC [3, 9]: ≤ 0.025 µg/mL; MIC [4, 10]: 0.8 µg/mL (≈ 1.48 µM); MIC [5, 11]: 0.1 µg/mL (≈ 0.185 µM); MIC [6, 12]: 0.2 µg/mL (≈ 0.37 µM)

Q: For `C[N+](C)(C/C=C/C1=C(C(=O)[O-])N2C(=O)[C@@H](NC(=O)/C(=N\OCF)c3nsc(N)n3)[C@H]2SC1)CC(=O)NCC(N)=O` [Example 73], which MIC [1, 7] is on record?
A: The MIC was 0.1 µg/mL (≈ 0.167 µM).

Q: What about the MIC [2, 8] of the same molecule?
A: The MIC was 0.05 µg/mL (≈ 0.0834 µM).

Q: What about the MIC [3, 9] of the same molecule?
A: Its MIC is 0.05 µg/mL (≈ 0.0834 µM).

Q: What about the MIC [4, 10] of the same molecule?
A: Its MIC is 1.56 µg/mL (≈ 2.6 µM).

Q: And the MIC [5, 11]?
A: Its MIC is 0.05 µg/mL (≈ 0.0834 µM).

Q: What about the MIC [6, 12] of the same molecule?
A: The MIC was 0.4 µg/mL (≈ 0.667 µM).

Q: Which results are given for `NC(=O)N1CCC[N+](C/C=C/C2=C(C(=O)[O-])N3C(=O)[C@@H](NC(=O)/C(=N\OCF)c4nsc(N)n4)[C@H]3SC2)(CCO)CC1` (stereo partly drawn) [Example 101]?
A: MIC [1, 7]: ≤ 0.025 µg/mL; MIC [2, 8]: 0.05 µg/mL (≈ 0.0797 µM); MIC [3, 9]: ≤ 0.025 µg/mL; MIC [4, 10]: 1.56 µg/mL (≈ 2.49 µM); MIC [5, 11]: ≤ 0.025 µg/mL; MIC [6, 12]: 0.2 µg/mL (≈ 0.319 µM)

Q: For `C[N+](C)(C/C=C/C1=C(C(=O)[O-])N2C(=O)[C@@H](NC(=O)/C(=N\OCF)c3nsc(N)n3)[C@H]2SC1)CC(=O)NCO` [Example 92], which MIC [1, 7] is on record?
A: The MIC was ≤ 0.025 µg/mL.

Q: And the MIC [2, 8]?
A: Its MIC is ≤ 0.025 µg/mL.

Q: And the MIC [3, 9]?
A: Its MIC is ≤ 0.025 µg/mL.

Q: And the MIC [4, 10]?
A: Its MIC is 0.8 µg/mL (≈ 1.4 µM).

Q: And the MIC [5, 11]?
A: Its MIC is ≤ 0.025 µg/mL.

Q: What about the MIC [6, 12] of the same molecule?
A: Its MIC is 0.2 µg/mL (≈ 0.349 µM).

Q: How did the MIC ([1]; 18 hours) turn out when `CN1CCC[N+]1(C)C/C=C/C1=C(C(=O)[O-])N2C(=O)[C@@H](NC(=O)/C(=N\OCC#N)c3nsc(N)n3)[C@H]2SC1` (single isomer, unassigned) [Example 160-B] was run?
A: Its MIC is 0.05 µg/mL (≈ 0.0913 µM).

Q: What about the MIC [2] of the same molecule?
A: The MIC was 0.05 µg/mL (≈ 0.0913 µM).

Q: And the MIC [3]?
A: Its MIC is 0.05 µg/mL (≈ 0.0913 µM).

Q: And the MIC [4]?
A: Its MIC is 0.8 µg/mL (≈ 1.46 µM).

Q: And the MIC [5]?
A: Its MIC is 0.2 µg/mL (≈ 0.365 µM).

Q: And the MIC [6]?
A: The MIC was 0.1 µg/mL (≈ 0.183 µM).

Q: `Nc1nc(/C(=N/OC(F)F)C(=O)N[C@@H]2C(=O)N3C(C(=O)[O-])=C(/C=C/C[n+]4ccc(C(=O)O)cc4)CS[C@H]23)ns1` [Example 115] was tested. Which MIC [1, 7] did it give?
A: Its MIC is ≤ 0.025 µg/mL.

Q: What about the MIC [2, 8] of the same molecule?
A: Its MIC is ≤ 0.025 µg/mL.

Q: What about the MIC [3, 9] of the same molecule?
A: Its MIC is ≤ 0.025 µg/mL.

Q: What about the MIC [4, 10] of the same molecule?
A: Its MIC is 3.13 µg/mL (≈ 5.38 µM).

Q: And the MIC [5, 11]?
A: Its MIC is 0.05 µg/mL (≈ 0.086 µM).

Q: And the MIC [6, 12]?
A: The MIC was 0.8 µg/mL (≈ 1.38 µM).

Q: `CC(O)C[N+]1(C/C=C/C2=C(C(=O)[O-])N3C(=O)[C@@H](NC(=O)/C(=N\OCF)c4nsc(N)n4)[C@H]3SC2)CCOCC1` (stereo partly drawn) [Example 39] was tested. Which MIC [1, 7] did it give?
A: The MIC was 0.05 µg/mL (≈ 0.0854 µM).

Q: And the MIC [2, 8]?
A: Its MIC is 0.05 µg/mL (≈ 0.0854 µM).

Q: What about the MIC [3, 9] of the same molecule?
A: Its MIC is ≤ 0.025 µg/mL.

Q: What about the MIC [4, 10] of the same molecule?
A: The MIC was 1.56 µg/mL (≈ 2.66 µM).

Q: What about the MIC [5, 11] of the same molecule?
A: The MIC was 0.1 µg/mL (≈ 0.171 µM).

Q: What about the MIC [6, 12] of the same molecule?
A: Its MIC is 0.2 µg/mL (≈ 0.342 µM).

Q: `NC(=O)C[N+]1(C/C=C/C2=C(C(=O)[O-])N3C(=O)[C@@H](NC(=O)/C(=N\OCF)c4nsc(N)n4)[C@H]3SC2)CCC(O)C1` (stereo partly drawn) [Example 9-3, 7β-[2-(5-Amino-1,2,4-thiadiazol-3-yl)-(Z)-2-fluoromethoxyiminoacetamido]-3-[(E)-3-(1-carbamoylmethyl-3-hydroxy-1-pyrrolidinio)-1-propen-1-yl]-3-cephem-4-carboxylate] was tested. Which MIC ([1]; 18 hours) did it give?
A: The MIC was ≤ 0.025 µg/mL.

Q: What about the MIC [2] of the same molecule?
A: Its MIC is ≤ 0.025 µg/mL.

Q: What about the MIC [3] of the same molecule?
A: Its MIC is ≤ 0.025 µg/mL.

Q: What about the MIC [4] of the same molecule?
A: The MIC was 0.8 µg/mL (≈ 1.37 µM).

Q: And the MIC [5]?
A: Its MIC is ≤ 0.025 µg/mL.

Q: What about the MIC [6] of the same molecule?
A: The MIC was 0.4 µg/mL (≈ 0.684 µM).

Q: For `C[N+]1(C/C=C/C2=C(C(=O)[O-])N3C(=O)[C@@H](NC(=O)/C(=N\OCF)c4nsc(N)n4)[C@H]3SC2)CCN(C=N)CC1.Cl` [Example 123, 7β-[2-(5-Amino-1,2,4-thiadiazol-3-yl)-(Z)-2-fluoromethoxyiminoacetamido]-3-[(E)-3-(1-methyl-4-formimidoyl-1-piperazinio)-1-propen-1-yl]-3-cephem-4-carboxylate hydrochloride], which MIC [1, 7] is on record?
A: Its MIC is 0.05 µg/mL.

Q: What about the MIC [2, 8] of the same molecule?
A: Its MIC is 0.05 µg/mL.

Q: What about the MIC [3, 9] of the same molecule?
A: Its MIC is 0.05 µg/mL.

Q: What about the MIC [4, 10] of the same molecule?
A: The MIC was 1.56 µg/mL.

Q: What about the MIC [5, 11] of the same molecule?
A: The MIC was 0.2 µg/mL.

Q: And the MIC [6, 12]?
A: Its MIC is 0.4 µg/mL.

Q: What does the source list for `C[N+](C)(C/C=C/C1=C(C(=O)[O-])N2C(=O)[C@@H](NC(=O)/C(=N\OCF)c3nsc(N)n3)[C@H]2SC1)CCC(N)=O` [Example 93]?
A: MIC [1, 7]: ≤ 0.025 µg/mL; MIC [2, 8]: ≤ 0.025 µg/mL; MIC [3, 9]: ≤ 0.025 µg/mL; MIC [4, 10]: 0.8 µg/mL (≈ 1.44 µM); MIC [5, 11]: ≤ 0.025 µg/mL; MIC [6, 12]: 0.2 µg/mL (≈ 0.359 µM)

Q: Which MIC [1, 7] does the source give for `N#CCO/N=C(\C(=O)N[C@@H]1C(=O)N2C(C(=O)[O-])=C(/C=C/C[N+](CCO)(CCO)CCO)CS[C@H]12)c1nsc(N)n1` [Example 147] here?
A: The MIC was 0.05 µg/mL (≈ 0.0838 µM).

Q: And the MIC [2, 8]?
A: The MIC was 0.4 µg/mL (≈ 0.67 µM).

Q: What about the MIC [3, 9] of the same molecule?
A: Its MIC is 0.05 µg/mL (≈ 0.0838 µM).

Q: What about the MIC [4, 10] of the same molecule?
A: Its MIC is 1.56 µg/mL (≈ 2.61 µM).

Q: And the MIC [5, 11]?
A: The MIC was 0.2 µg/mL (≈ 0.335 µM).

Q: What about the MIC [6, 12] of the same molecule?
A: The MIC was 0.2 µg/mL (≈ 0.335 µM).
